Experimental data: patent US7432276B2, “ABCA1 elevating compounds” (CV Therapeutics, Inc., priority 2005, dated 2008)

What follows are molecules tested on ABCA1 mRNA (assay: ABCA1 mRNA induction in THP-1 cells, QuantiGene branched DNA assay). Details: 10 μM test compound, 18-20 hours.
Format: cell-based
Outline: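 THP-1 cells, grown to subconfluence, treated with compounds at 10 and 3 μM in DMEM/BSA for 18–20 h. Lysates hybridized with ABCA1-specific probe 16–18 h at 53 °C; QuantiGene branched DNA luminescence gives fold increase over DMSO.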
In the case of CC(C)Oc1ccc2c(c1)C(C)(C)C1COc3c(F)cccc3C1N2 (stereo not shown) [Number 102, 4-fluoro-7,7-dimethyl-9-(methylethoxy)-7,12,12a,6a-tetrahydrochromano[4,3-b]quinoline], the “ABCA1 Induction Fold Increase over DMSO Vehicle” value (“ABCA1 Induction Fold Increase” for short) is reported as 4.2 FOLD INCREASE. In the case of COc1cccc2c1[C@H]1Nc3cc(C#N)ccc3C(C)(C)[C@H]1CO2 [Number 63, (12aS,6aR)-1-methoxy-7,7-dimethyl-7,12,12a,6a-tetrahydrochromano[4,3-b]quinoline-10-carbonitrile], the “ABCA1 Induction Fold Increase” value is reported as 3.5 FOLD INCREASE. In the case of COc1cccc2c1[C@H]1Nc3ccc(-c4ccc(S(N)(=O)=O)cc4)cc3C(C)(C)[C@@H]1CO2 [Number 97, 4-((12aS,6aS)-1-methoxy-7,7-dimethyl-7,12,12a,6a-tetrahydrochromano[4,3-b]quinolin-9-yl)benzenesulfonamide], the “ABCA1 Induction Fold Increase” value is reported as 5.7 FOLD INCREASE. For CC(=O)c1ccc2c(c1)C(C)(C)C1COc3c(F)cccc3C1N2 (stereo not shown) [Number 101, 1-(4-fluoro-7,7-dimethyl-7,12,12a,6a-tetrahydrochromano[4,3-b]quinolin-9-yl)ethan-1-one], the “ABCA1 Induction Fold Increase” value was 4.0 FOLD INCREASE. For COc1cccc2c1OCC1C2Nc2ccc(-c3cccc(C(=O)OC(C)C)c3)cc2C1(C)C (stereo not shown) [Number 60, methylethyl 3-(4-methoxy-7,7-dimethyl-7,12,12a,6a-tetrahydrochromano[4,3-b]quinolin-9-yl)benzoate], the “ABCA1 Induction Fold Increase” value was 4.4 FOLD INCREASE. In the case of Cc1cccc2c1OCC1[C@@H]2Nc2ccccc2C1(C)C (stereo partly drawn) [Number 32, (12aS)-4,7,7-trimethyl-7,12,12a,6a-tetrahydrochromano[4,3-b]quinoline], the “ABCA1 Induction Fold Increase” value is reported as 4.9 FOLD INCREASE. In the case of COc1cccc2c1OC[C@H]1C2Nc2ccc(C(O)(C(F)(F)F)C(F)(F)F)cc2C1(C)C (stereo partly drawn) [Number 34, 2-((6aR)-4-methoxy-7,7-dimethyl(7,12,12a,6a-tetrahydrochromano[4,3-b]quinolin-9-yl))-1,1,1,3,3,3-hexafluoropropan-2-ol], the “ABCA1 Induction Fold Increase” value is reported as 4.5 FOLD INCREASE. For COc1cccc2c1[C@H]1Nc3ccc(-n4ncc(C(=O)N5CCS(=O)(=O)CC5)c4C)cc3C(C)(C)[C@H]1CO2 [Number 141, 1-((6aR,12aS)-6a,7,12,12a-tetrahydro-1-methoxy-7,7-dimethyl-6H-chromeno[4,3-b]quinolin-9-yl)1-5-methyl-1H-pyrazole-4-((1,1-dione-1,4-thiazaperhydroin-yl)methanone)], the “ABCA1 Induction Fold Increase” value was 7.1 FOLD INCREASE. COC(=O)/C=C/c1ccc2c(c1)C1Nc3ccc(C(O)(C(F)(F)F)C(F)(F)F)cc3C(C)(C)C1CO2 (stereo not shown) [Number 35, methyl (2E)-3-{7,7-dimethyl-9-[2,2,2-trifluoro-1-hydroxy-1-(trifluoromethyl)ethyl](7,12,12a,6a-tetrahydrochromano[4,3-b]quinolin-2-yl)}prop-2-enoate] was tested, and the “ABCA1 Induction Fold Increase” value was 4.3 FOLD INCREASE. With COc1ccc(Br)c2c1OCC1C2Nc2ccc(C(C)=O)cc2C1(C)C (stereo not shown) [Number 80, 1-(1-bromo-4-methoxy-7,7-dimethyl-7,12,12a,6a-tetrahydrochromano[4,3-b]quinolin-9-yl)ethan-1-one] the “ABCA1 Induction Fold Increase” value was 4.3 FOLD INCREASE. For COc1cccc2c1OC[C@@H]1[C@H]2Nc2ccc(F)cc2C1(C)C [Number 48, (6aS,12aR)-9-fluoro-4-methoxy-7,7-dimethyl-7,12,12a,6a-tetrahydrochromano[4,3-b]quinoline], the “ABCA1 Induction Fold Increase” value was 3.7 FOLD INCREASE. For COc1cccc2c1OC[C@@H]1[C@H]2Nc2ccc(CCC(=O)O)cc2C1(C)C [Number 27, 3-((6aS,12aR)-4-methoxy-7,7-dimethyl-7,12,12a,6a-tetrahydrochromano[4,3-b]quinolin-9-yl)propanoic acid], the “ABCA1 Induction Fold Increase” value was 3.3 FOLD INCREASE. CCS(=O)(=O)N1CCN(C(=O)c2coc(-c3ccc4c(c3)C(C)(C)[C@H]3COc5cccc(OC)c5[C@H]3N4)n2)CC1 [Number 147, 2-((6aR,12aS)-1-methoxy-6a,7,12,12a-tetrahydro-7,7-dimethyl-6H-chromeno[4,3-b]quinolin-9-yl)oxazole-(4-(4-ethanesulfonylpiperazin-1-yl)methanone)] was tested, and the “ABCA1 Induction Fold Increase” value was 7 FOLD INCREASE. In the case of COc1cccc2c1[C@H]1Nc3ccc(-n4cc(C(=O)N5CCS(=O)(=O)CC5)cn4)cc3C(C)(C)[C@H]1CO2 [Number 138, 1-((6aR,12aS)-6a,7,12,12a-tetrahydro-1-methoxy-7,7-dimethyl-6H-chromeno[4,3-b]quinolin-9-yl)1-1H-pyrazole-4-((1,1-dione-1,4-thiazaperhydroin-yl)methanone)], the “ABCA1 Induction Fold Increase” value is reported as 7.4 FOLD INCREASE. In the case of CCOP(=O)(Cc1ccc2c(c1)C(C)(C)C1COc3c(OC)cc(Cl)cc3C1N2)OCC (stereo not shown) [Number 91, [(2-chloro-4-methoxy-7,7-dimethyl(7,12,12a,6a-tetrahydrochromano[4,3-b]quinolin-9-yl))methyl]diethoxyphosphino-1-one], the “ABCA1 Induction Fold Increase” value is reported as 6.2 FOLD INCREASE. With COc1cccc2c1[C@H]1Nc3ccc(C(=O)N4CCS(=O)(=O)CC4)cc3C(C)(C)[C@H]1CO2 [Number 121, ((6aR,12aS)-6a,7,12,12a-tetrahydro-1-methoxy-7,7-dimethyl-6H-chromeno[4,3-b]quinolin-9-yl)(1,1-dione-1,4-thiazaperhydroin-yl)methanone] the “ABCA1 Induction Fold Increase” value was 3.2 FOLD INCREASE. For CC1(C)c2cc(C(O)(C(F)(F)F)C(F)(F)F)ccc2N[C@H]2c3ccccc3OC[C@H]21 [Number 70, 2-((6aS,12aR)-7,7-dimethyl(7,12,12a,6a-tetrahydrochromano[4,3-b]quinolin-9-yl))-1,1,1,3,3,3-hexafluoropropan-2-ol], the “ABCA1 Induction Fold Increase” value was 4.0 FOLD INCREASE. For C#Cc1ccc2c(c1)C(C)(C)[C@H]1COc3cccc(OC)c3[C@H]1N2 [Number 95, (12aS,6aR)-9-ethynyl-1-methoxy-7,7-dimethyl-7,12,12a,6a-tetrahydrochromano[4,3-b]quinoline], the “ABCA1 Induction Fold Increase” value was 4.3 FOLD INCREASE.

Same assay, conditions: Homo sapiens, 10 μM test compound, 18-20 hours, read-out: ABCA1 Induction Fold Increase over DMSO Vehicle
COc1cc(-c2c(C)noc2C)cc2c1OC[C@H]1[C@@H]2Nc2ccc(-c3cnco3)cc2C1(C)C [Number 165, (6aR,12aS)-6a,7,12,12a-tetrahydro-4-methoxy-7,7-dimethyl-2-(3,5-dimethylisoxazol-4-yl)-9-(oxazol-5-yl)-6H-chromeno[4,3-b]quinoline] showed a fold induction at 10 µM of 7.4. With COc1cccc2c1[C@H]1Nc3ccc(C(=O)N4CCNCC4)cc3C(C)(C)[C@H]1CO2 [Number 127, ((6aR,12aS)-6a,7,12,12a-tetrahydro-1-methoxy-7,7-dimethyl-6H-chromeno[4,3-b]quinolin-9-yl)(piperazin-1-yl)methanone] the fold induction at 10 µM was 5.1. In the case of COc1cc(Br)cc2c1OC[C@H]1[C@@H]2Nc2ccc(-c3cnco3)cc2C1(C)C [Number 149, (6aR,12aS)-2-bromo-6a,7,12,12a-tetrahydro-4-methoxy-7,7-dimethyl-9-(oxazol-5-yl)-6H-chromeno[4,3-b]quinoline], the fold induction at 10 µM is reported as 5.5. With COC(=O)c1ccc2c(c1)C(C)(C)[C@H]1COc3c(OC)cc(-c4cn[nH]c4)cc3[C@H]1N2 [Number 161, (6aR,12aS)-methyl 6a,7,12,12a-tetrahydro-4-methoxy-7,7-dimethyl-2-(1H-pyrazol-4-yl)-6H-chromeno[4,3-b]quinoline-9-carboxylate] the fold induction at 10 µM was 8.1.
